Test [1] deals with SREBP-2 (Homo sapiens (Human), UniProt Q12772). Briefly: In vitro assay SREBP-2: PathHunter U2OS SREBP-2 Nuclear Translocation Cell Line, U18666A-stimulated. Type of test: cell-based.
Test [2] concerns the target LXRβ (Homo sapiens (Human), UniProt P55055). Briefly: In vitro assay LXRβ: PathHunter NHR CHO cells, LXRβ / Steroid Receptor Co-activator Peptide enzyme fragment complementation. In kind it is cell-based. As to conditions: PathHunter NHR CHO cells, full-length human LXRβ and SRCP, chemiluminescent signal; read-out: LXRβ PPI. In short, it runs like this: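 Co-activator recruitment measured by chemiluminescence after signal generation. The CHO line carries full-length human LXRβ tagged with ProLink and an SRCP–enzyme acceptor fusion in the nucleus; cells sat overnight at 37° C before testing, in charcoal-dextran filtered serum medium with 1% final vehicle.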

The mark [3] stands for this setting: PathHunter U2OS SREBP-2 nuclear translocation cells, U18666A 10 μM, overnight (16 hours).

Like-named read-outs stand apart in the source and are kept apart here.

Chain of LXRβ (P55055 whole entry, the tested form may be a part): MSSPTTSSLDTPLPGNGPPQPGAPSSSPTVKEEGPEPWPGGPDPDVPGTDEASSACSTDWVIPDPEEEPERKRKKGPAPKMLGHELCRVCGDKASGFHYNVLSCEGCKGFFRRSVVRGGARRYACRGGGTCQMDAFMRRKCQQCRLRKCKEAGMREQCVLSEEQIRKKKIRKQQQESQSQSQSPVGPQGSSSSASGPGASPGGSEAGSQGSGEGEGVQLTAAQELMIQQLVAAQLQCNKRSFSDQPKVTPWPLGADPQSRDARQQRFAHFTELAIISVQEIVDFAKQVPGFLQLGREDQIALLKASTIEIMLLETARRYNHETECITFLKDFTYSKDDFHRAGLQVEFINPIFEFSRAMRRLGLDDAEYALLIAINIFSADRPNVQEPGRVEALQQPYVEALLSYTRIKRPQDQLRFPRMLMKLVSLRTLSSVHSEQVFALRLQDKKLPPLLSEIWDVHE

Broadly, the IC50 is the concentration needed to halve the response being measured. A higher IC50 goes with lower potency. `Cc1ccc(CC[C@@H](C)[C@H]2CC[C@H]3[C@@H]4CC=C5C[C@@H](O)CC[C@]5(C)[C@H]4CC[C@]23C)nc1` [Example 131, (3S,8S,9S,10R,13R,14S,17R)-10,13-dimethyl-17-((R)-4-(5-methylpyridin-2-yl)butan-2-yl)-2,3,4,7,8,9,10,11,12,13,14,15,16,17-tetradecahydro-1H-cyclopenta[a]phenanthren-3-ol] registered an IC50 in test [1] (setting [3]) of 250 to 1000 nM. In test [2], the EC50 is greater than 10000 nM.
Compound `C[C@H](CCc1ncccn1)[C@H]1CC[C@H]2[C@@H]3CC=C4C[C@@H](O)CC[C@]4(C)[C@H]3CC[C@]12C` [Example 133, (1R,3aS,3bS,7S,9aR,9bS,11aR)-9a,11a-dimethyl-1-[(2R)-4-(pyrimidin-2-yl)butan-2-yl]-1H,2H,3H,3aH,3bH,4H,6H,7H,8H,9H,9aH,9bH,10H,11H,11aH-cyclopenta[a]phenanthren-7-ol] displayed an IC50 in test [1] (setting [3]) of 250 to 1000 nM. The EC50 in test [2] was in the range of 250 to 1000 nM.
`C[C@H](CCc1cccnn1)[C@H]1CC[C@H]2[C@@H]3CC=C4C[C@@H](O)CC[C@]4(C)[C@H]3CC[C@]12C` [Example 134, (1R,3aS,3bS,7S,9aR,9bS,11aR)-9a,11a-dimethyl-1-[(2R)-4-(pyridazin-3-yl)butan-2-yl]-1H,2H,3H,3aH,3bH,4H,6H,7H,8H,9H,9aH,9bH,10H,11H,11aH-cyclopenta[a]phenanthren-7-ol] came in with an IC50 in test [1] (setting [3]) greater than 10000 nM. Besides, the EC50 in test [2] lay in the range of 250 to 1000 nM.
The corresponding values for `C[C@H](CCc1cnccn1)[C@H]1CC[C@H]2[C@@H]3CC=C4C[C@@H](O)CC[C@]4(C)[C@H]3CC[C@]12C` [Example 136, (3S,8S,9S,10R,13R,14S,17R)-10,13-dimethyl-17-((R)-4-(pyrazin-2-yl)butan-2-yl)-2,3,4,7,8,9,10,11,12,13,14,15,16,17-tetradecahydro-1H-cyclopenta[a]phenanthren-3-ol] are less than 250 nM and 250 to 1000 nM.
`C[C@H](CCc1ncco1)[C@H]1CC[C@H]2[C@@H]3CC=C4C[C@@H](O)CC[C@]4(C)[C@H]3CC[C@]12C` [Example 137, (3S,8S,9S,10R,13R,14S,17R)-10,13-dimethyl-17-((R)-4-(oxazol-2-yl)butan-2-yl)-2,3,4,7,8,9,10,11,12,13,14,15,16,17-tetradecahydro-1H-cyclopenta[a]phenanthren-3-ol]: the IC50 in test [1] (setting [3]) lay in the range of 250 to 1000 nM. In addition, the EC50 in test [2] lay within 1000 to 10000 nM.
Taken in the same sequence, the figures for `C=CCN1C[C@@H]2CCN(C(=O)CC[C@@H](C)[C@H]3CC[C@H]4[C@@H]5CC=C6C[C@@H](O)CC[C@]6(C)[C@H]5CC[C@]34C)[C@@H]2C1` [Example 139, (R)-1-((3aS,6aS)-5-allylhexahydropyrrolo[3,4-b]pyrrol-1(2H)-yl)-4-((3S,8S,9S,10R,13R,14S,17R)-3-hydroxy-10,13-dimethyl-2,3,4,7,8,9,10,11,12,13,14,15,16,17-tetradecahydro-1H-cyclopenta[a]phenanthren-17-yl)pentan-1-one] were 250 to 1000 nM and greater than 10000 nM.
The corresponding values for `C=CCN1C[C@H]2CCN(C(=O)CC[C@@H](C)[C@H]3CC[C@H]4[C@@H]5CC=C6C[C@@H](O)CC[C@]6(C)[C@H]5CC[C@]34C)[C@H]2C1` [Example 140, (R)-1-((3aR,6aR)-5-allylhexahydropyrrolo[3,4-b]pyrrol-1(2H)-yl)-4-((3S,8S,9S,10R,13R,14S,17R)-3-hydroxy-10,13-dimethyl-2,3,4,7,8,9,10,11,12,13,14,15,16,17-tetradecahydro-1H-cyclopenta[a]phenanthren-17-yl)pentan-1-one] are 250 to 1000 nM and greater than 10000 nM.
In test [1], `CON(C)C(=O)C(C)C[C@@H](C)[C@H]1CC[C@H]2[C@@H]3CC=C4C[C@@H](O)CC[C@]4(C)[C@H]3CC[C@]12C` (stereo partly drawn) [Example 142, (4R)-4-((3S,8S,9S,10R,13R,14S,17R)-3-hydroxy-10,13-dimethyl-2,3,4,7,8,9,10,11,12,13,14,15,16,17-tetradecahydro-1H-cyclopenta[a]phenanthren-17-yl) -N-methoxy-N,2-dimethylpentanamide] showed an IC50 of 1000 to 10000 nM. Besides, in test [2], the EC50 was 1000 to 10000 nM.
In the case of `C[C@H](CCC(=O)N1CCC(O)(CC(F)F)CC1)[C@H]1CC[C@H]2[C@@H]3CC=C4C[C@@H](O)CC[C@]4(C)[C@H]3CC[C@]12C` [Example 151, (4R)-4-[(1R,3aS,3bS,7S,9aR,9bS,11aR)-7-hydroxy-9a,11a-dimethyl-1H,2H,3H,3aH,3bH,4H,6H,7H,8H,9H,9aH,9bH,10H,11H,11aH-cyclopenta[a]phenanthren-1-yl]-1-[4-(2,2-difluoroethyl)-4-hydroxypiperidin-1-yl]pentan-1-one], the IC50 in test [1] (setting [3]) was less than 250 nM. In addition, the EC50 in test [2] is less than 250 nM.
With `C[C@H](OC(=O)C(=O)N1CCC1)[C@H]1CC[C@H]2[C@@H]3CC=C4C[C@@H](O)CC[C@]4(C)[C@H]3CC[C@]12C` [Example 155, (1S)-1-[(1S,3aS,3bS,7S,9aR,9bS,11aS)-7-hydroxy-9a,11a-dimethyl-1H,2H,3H,3aH,3bH,4H,6H,7H,8H,9H,9aH,9bH,10H,11H,11aH-cyclopenta[a]phenanthren-1-yl]ethyl 2-(azetidin-1-yl)-2-oxoacetate], the IC50 in test [1] (setting [3]) lay within 1000 to 10000 nM. For the same compound, the EC50 in test [2] is greater than 10000 nM.
Taken in the same sequence, the figures for `CCC1(O)CCN(C(=O)CC[C@@H](C)[C@H]2CC[C@H]3[C@@H]4CC=C5C[C@@H](O)C[C@H](O)[C@]5(C)[C@H]4CC[C@]23C)CC1` [Example 156, (R)-4-((1S,3R,8S,9S,10R,13R,14S,17R)-1,3-dihydroxy-10,13-dimethyl-2,3,4,7,8,9,10,11,12,13,14,15,16,17-tetradecahydro-1H-cyclopenta[a]phenanthren-17-yl)-1-(4-ethyl-4-hydroxypiperidin-1-yl)pentan-1-one] were greater than 10000 nM and less than 250 nM.
Taken in the same sequence, the figures for `C[C@H](CCC(=O)N(C)C)[C@H]1CC[C@H]2[C@@H]3CC=C4C[C@@H](O)CC[C@]4(C)[C@H]3[C@@H](O)C[C@]12C` [Example 157, (R)-4-((3S,8S,9S,10R,11S,13R,14S,17R)-3,11-dihydroxy-10,13-dimethyl-2,3,4,7,8,9,10,11,12,13,14,15,16,17-tetradecahydro-1H-cyclopenta[a]phenanthren-17-yl)-N, N-dimethylpentanamide] were 250 to 1000 nM and 250 to 1000 nM.
Taken in the same sequence, the figures for `CCC1(O)CCN(C(=O)CC[C@@H](C)[C@H]2CC[C@H]3[C@@H]4CC=C5C[C@@H](O)CC[C@]5(C)[C@H]4[C@@H](O)C[C@]23C)CC1` [Example 158, (R)-4-((3S,8S,9S,10R,11S,13R,14S,17R)-3,11-dihydroxy-10,13-dimethyl-2,3,4,7,8,9,10,11,12,13,14,15,16,17-tetradecahydro-1H-cyclopenta[a]phenanthren-17-yl)-1-(4-ethyl-4-hydroxypiperidin-1-yl)pentan-1-one] were 250 to 1000 nM and less than 250 nM.
In turn, `C[C@H](CCc1cccnc1)[C@H]1CC[C@H]2[C@@H]3CC=C4C[C@@H](O)CC[C@]4(C)[C@H]3CC[C@]12C` [Example 159, (3S,8S,9S,10R,13R,14S,17R)-10,13-dimethyl-17-((R)-4-(pyridin-3-yl)butan-2-yl)-2,3,4,7,8,9,10,11,12,13,14,15,16,17-tetradecahydro-1H-cyclopenta[a]phenanthren-3-ol] showed an IC50 in test [1] (setting [3]) of less than 250 nM. Besides, the EC50 in test [2] is greater than 10000 nM.
Taken in the same sequence, the figures for `C[C@H](CCc1ccncc1)[C@H]1CC[C@H]2[C@@H]3CC=C4C[C@@H](O)CC[C@]4(C)[C@H]3CC[C@]12C` [Example 160, (3S,8S,9S,10R,13R,14S,17R)-10,13-dimethyl-17-((R)-4-(pyridin-4-yl)butan-2-yl)-2,3,4,7,8,9,10,11,12,13,14,15,16,17-tetradecahydro-1H-cyclopenta[a]phenanthren-3-ol] were 250 to 1000 nM and greater than 10000 nM.
The corresponding values for `C[C@H](CCc1cccc(F)n1)[C@H]1CC[C@H]2[C@@H]3CC=C4C[C@@H](O)CC[C@]4(C)[C@H]3CC[C@]12C` [Example 161, (3S,8S,9S,10R,13R,14S,17R)-17-((R)-4-(6-fluoropyridin-2-yl)butan-2-yl)-10,13-dimethyl-2,3,4,7,8,9,10,11,12,13,14,15,16,17-tetradecahydro-1H-cyclopenta[a]phenanthren-3-ol] are less than 250 nM and 1000 to 10000 nM.
Taken in the same sequence, the figures for `C[C@H](CCc1ccc(F)cn1)[C@H]1CC[C@H]2[C@@H]3CC=C4C[C@@H](O)CC[C@]4(C)[C@H]3CC[C@]12C` [Example 162, (1R,3aS,3bS,7S,9aR,9bS,11aR)-1-[(2R)-4-(5-fluoropyridin-2-yl)butan-2-yl]-9a,11a-dimethyl-1H,2H,3H,3aH,3bH,4H,6H,7H,8H,9H,9aH,9bH,10H,11H,11aH-cyclopenta[a]phenanthren-7-ol] were less than 250 nM and 1000 to 10000 nM.
In test [1] (setting [3]), `C[C@H](CCc1cc(F)ccn1)[C@H]1CC[C@H]2[C@@H]3CC=C4C[C@@H](O)CC[C@]4(C)[C@H]3CC[C@]12C` [Example 163, (3S,8S,9S,10R,13R,14S,17R)-17-((R)-4-(4-fluoropyridin-2-yl)butan-2-yl)-10,13-dimethyl-2,3,4,7,8,9,10,11,12,13,14,15,16,17-tetradecahydro-1H-cyclopenta[a]phenanthren-3-ol] displayed an IC50 of less than 250 nM. For the same compound, in test [2], the EC50 lay in the range of 1000 to 10000 nM.
In test [1] (setting [3]), `C[C@H](CCc1ncccc1F)[C@H]1CC[C@H]2[C@@H]3CC=C4C[C@@H](O)CC[C@]4(C)[C@H]3CC[C@]12C` [Example 164, (3S,8S,9S,10R,13R,14S,17R)-17-((R)-4-(3-fluoropyridin-2-yl)butan-2-yl)-10,13-dimethyl-2,3,4,7,8,9,10,11,12,13,14,15,16,17-tetradecahydro-1H-cyclopenta[a]phenanthren-3-ol] registered an IC50 of 250 to 1000 nM. In addition, the EC50 in test [2] lay within 250 to 1000 nM.

The values above are taken from patent US20230340011A1 (Asteroid Therapeutics, priority 2022, published 2023).
